From patent publication US20240247253A1, “PRODUCTION METHOD OF POLYPEPTIDE, TAG, EXPRESSION VECTOR, EVALUATION METHOD OF POLYPEPTIDE, PRODUCTION METHOD OF NUCLEIC ACID DISPLAY LIBRARY, AND SCREENING METHOD” (FUJIFILM Corporation, priority 2021, published 2024)

How the values were obtained:
[1] = test system: cell-free peptide synthesis system derived from Escherichia coli; experiment: Cell-free biosynthesis of the integrin binding peptide fusion protein with N-terminal tag, 1 hour reaction, amount measured by ELISA; type: biochemical; details: relative value, control example without tag = 1; fusion protein SEQ ID NO: 5; 37° C. for 1 hour; average of two measurements
From the text: In the cell-free peptide synthesis system derived from Escherichia coli, the effect of the VKKX tag on the biosynthesis amount of the polypeptide was examined. As a polypeptide to be biosynthesized, an integrin binding peptide containing cysteine and chloroacetyl lysine was selected. In this polypeptide, a thiol group of cysteine and a chloroacetyl group of chloroacetyl lysine spontaneously form a thioether bond to become a cyclic polypeptide.
A fusion protein in which an integrin binding peptide, a Myc tag, and a HiBiT tag were linked in this order was designed. As a spacer, Gly-Gly-Ser was inserted between the integrin binding peptide and the Myc tag and between the Myc tag and the HiBiT tag. The amino acid sequence of this fusion protein is SEQ ID NO: 5, and the base sequence encoding this fusion protein is SEQ ID NO: 6. In SEQ ID NO: 5, the integrin binding peptide ranges to the amino acid at the twelfth position (that is, alanine) from an N-terminal, and the amino acid at eleventh position from the N-terminal is chloroacetyl lysine. The triplet TAG at the positions 31 to 33 from the 5′ terminal of the base sequence set forth in SEQ ID NO: 6 was assigned to the codon of chloroacetyl lysine. The end of the base sequence set forth in SEQ ID NO: 6 is the stop codon TAA.
A base sequence encoding a tagged fusion protein in which methionine, a VKKX tag (any of SEQ ID nOs: 7 to 52), and a fusion protein (SEQ ID NO: 5) were linked in this order was designed. In this base sequence, a base sequence (any of SEQ ID nOs: 53 to 98) encoding a VKKX tag is arranged immediately after the start codon ATG, and a base sequence encoding a fusion protein immediately after the base sequence (SEQ ID NO: 6) encoding the VKKX tag is arranged.
As a control example for evaluating the effect of the VKKX tag, a base sequence in which a base sequence (SEQ ID NO: 6) encoding a fusion protein arranged immediately after the start codon ATG was designed.
In order to translate chloroacetyl lysine which is an unnatural amino acid, a tRNA in which the anticodon was CUA and paired with the UAG codon of mRNA was prepared. This tRNA was aminoacylated with an N-chloroacetyl lysine hosphoro 2′ deoxyribocytidylylriboadenosine (pdCpA) ester. This aminoacyl tRNA is referred to as an Aminoacyl tRNA (1).
(§1) The cell-free biosynthesis of the polypeptide was carried out in a translation solution containing a template DNA, PUREfrex 2.0 (GeneFrontier, PF201-0.25-5), and Aminoacyl tRNA (1). 1.25 μL (62.5 ng) of the template DNA prepared to 50 ng/μL, 2.5 μL of PUREfrex 2.0 Solution I, 0.25 μL of Solution II, 0.5 μL of Solution III, and 0.5 μL of Aminoacyl tRNA (1) were mixed and mixture was subjected to a reaction at 37° ° C. for 1 hour.
The amount of the biosynthesized polypeptide was measured by ELISA. 50 ng of Recombinant Human Integrin αVβ3 (R&D systems, 3050-AV-050) was immobilized in each well of a 96-well plate and blocked with Blocker Casein in PBS (Thermo, 37528), and then a cell-free biosynthesis solution diluted with Can Get Signal Immunoreaction Enhancer Solution I (TOYOBO, NKB-101) containing 5 mmol/L MgCl2 was added thereto, and the mixture was subjected to a reaction at room temperature for 3 hours. After washing with 5 mmol/L MgCl2/0.05% Tween 20-containing phosphate buffered saline (PBS), an anti-Myc antibody (Cell Signaling, 14038S) diluted with Can Get Signal Immunoreaction Enhancer Solution II (TOYOBO, NKB-101) was added thereto, and the mixture was subjected to a reaction at room temperature for 2 hours. After washing with PBS containing 5 mmol/L MgCl2/0.05% Tween 20, Super Signal ELISA Femto Substrate (Thermo, 37075) was added thereto, and the luminescence was measured. The amount of the fusion protein in the cell-free biosynthesis solution was calculated based on a calibration curve created from the fusion protein having a known concentration. The luminescence measurement was performed twice, and the average value of the amounts of the fusion protein was calculated. […]

[2] = test system: cell-free peptide synthesis system derived from Escherichia coli; experiment: Cell-free biosynthesis of the integrin binding peptide fusion protein with tag, reaction time 10 minutes, ELISA; type: biochemical; details: relative value, control without tag = 1; reaction time 10 minutes; fusion protein SEQ ID NO: 5; SKIK encoded by SEQ ID NO: 110
Method: as §1
The amount of the biosynthesized polypeptide was measured by ELISA. 50 ng of Recombinant Human Integrin αVβ3 (R&D systems, 3050-AV-050) was immobilized in each well of a 96-well plate and blocked with Blocker Casein in PBS (Thermo, 37528), and then a cell-free biosynthesis solution diluted with Can Get Signal Immunoreaction Enhancer Solution I (TOYOBO, NKB-101) containing 5 mmol/L MgCl2 was added thereto, and the mixture was subjected to a reaction at room temperature for 3 hours. After washing with 5 mmol/L MgCl2/0.05% Tween 20-containing phosphate buffered saline (PBS), an anti-Myc antibody (Cell Signaling, 14038S) diluted with Can Get Signal Immunoreaction Enhancer Solution II (TOYOBO, NKB-101) was added thereto, and the mixture was subjected to a reaction at room temperature for 2 hours. After washing with PBS containing 5 mmol/L MgCl2/0.05% Tween 20, Super Signal ELISA Femto Substrate (Thermo, 37075) was added thereto, and the luminescence was measured. The amount of the fusion protein in the cell-free biosynthesis solution was calculated based on a calibration curve created from the fusion protein having a known concentration. The luminescence measurement was performed twice, and the average value of the amounts of the fusion protein was calculated. Table 2-1 and Table 2-2 show relative values of the biosynthesis amounts of respective fusion proteins in a case where the amount of the fusion protein of the control example was set to the reference value 1.
As a comparative control, a SKIK tag represented by SEQ ID NO: 107 was selected. The polypeptide to be biosynthesized is the fusion protein containing the integrin binding peptide, as in Example 1.
Using a template DNA including DNA sequences (SEQ ID NOs: 73 to 98) encoding VKKX tags represented by SEQ ID NOs: 27 to 52 produced in Example 1, and a DNA sequence (SEQ ID NO: 110) encoding a SKIK tag represented by SEQ ID NO: 107 produced in Example 2, the biosynthesis reaction was performed in the same manner as in Example 1 by setting the reaction time to 10 minutes. In the same manner in Example 1, the fusion protein was expressed by the cell-free peptide synthesis system and quantified by ELISA. The measurement was performed twice, and the average value of the amounts of the fusion protein was calculated. […] As control example used in Example 1, the control example of the reference value 1 has a form in which the base sequence (SEQ ID NO: 6) encoding the fusion protein is arranged immediately after the start codon ATG.

Substance | Biosynthesis amount of fusion protein [1] | Biosynthesis amount of fusion protein [2]
SEQ ID NO: 7: VKKX tag, amino acid sequence VKKI (VKKX Tag) | 4.40 | 
SEQ ID NO: 8: VKKX tag, amino acid sequence VKKK (VKKX Tag) | 6.15 | 
SEQ ID NO: 9: VKKX tag, amino acid sequence VKKT (VKKX Tag) | 5.66 | 
SEQ ID NO: 10: VKKX tag, amino acid sequence VKKR (VKKX Tag) | 5.75 | 
SEQ ID NO: 11: VKKX tag, amino acid sequence VKKS (VKKX Tag) | 6.05 | 
SEQ ID NO: 12: VKKX tag, amino acid sequence VKKH (VKKX Tag) | 5.82 | 
SEQ ID NO: 13: VKKX tag, amino acid sequence VKKM (VKKX Tag) | 1.94 | 
SEQ ID NO: 14: VKKX tag, amino acid sequence VKKP (VKKX Tag) | 2.23 | 
SEQ ID NO: 15: VKKX tag, amino acid sequence VKKG (VKKX Tag) | 2.39 | 
SEQ ID NO: 16: VKKX tag, amino acid sequence VKKL (VKKX Tag) | 2.71 | 
SEQ ID NO: 17: VKKX tag, amino acid sequence VKKV (VKKX Tag) | 2.90 | 
SEQ ID NO: 18: VKKX tag, amino acid sequence VKKE (VKKX Tag) | 2.94 | 
SEQ ID NO: 19: VKKX tag, amino acid sequence VKKA (VKKX Tag) | 3.01 | 
SEQ ID NO: 20: VKKX tag, amino acid sequence VKKD (VKKX Tag) | 3.05 | 
SEQ ID NO: 21: VKKX tag, amino acid sequence VKKC (VKKX Tag) | 3.14 | 
SEQ ID NO: 22: VKKX tag, amino acid sequence VKKN (VKKX Tag) | 3.17 | 
SEQ ID NO: 23: VKKX tag, amino acid sequence VKKY (VKKX Tag) | 3.30 | 
SEQ ID NO: 24: VKKX tag, amino acid sequence VKKQ (VKKX Tag) | 3.52 | 
SEQ ID NO: 25: VKKX tag, amino acid sequence VKKW (VKKX Tag) | 3.52 | 

Substance | Biosynthesis amount of fusion protein [1] | Biosynthesis amount of fusion protein [2]
SEQ ID NO: 26: VKKX tag, amino acid sequence VKKF (VKKX Tag) | 3.69 | 
SEQ ID NO: 28: VKKX tag, amino acid sequence VKKTKTT (VKKX Tag) | 6.28 | 16.65
SEQ ID NO: 29: VKKX tag, amino acid sequence VKKTKTD (VKKX Tag) | 6.09 | 15.90
SEQ ID NO: 30: VKKX tag, amino acid sequence VKKTKTKK (VKKX Tag) | 9.01 | 24.42
SEQ ID NO: 31: VKKX tag, amino acid sequence VKKTKTKT (VKKX Tag) | 9.08 | 15.48
SEQ ID NO: 32: VKKX tag, amino acid sequence VKKTKTKD (VKKX Tag) | 8.04 | 20.56
SEQ ID NO: 33: VKKX tag, amino acid sequence VKKTKTTK (VKKX Tag) | 6.54 | 8.17
SEQ ID NO: 34: VKKX tag, amino acid sequence VKKTKTTT (VKKX Tag) | 6.69 | 8.59
SEQ ID NO: 35: VKKX tag, amino acid sequence VKKTKTDD (VKKX Tag) | 5.75 | 8.49
SEQ ID NO: 36: VKKX tag, amino acid sequence VKKTKTKKT (VKKX Tag) | 10.50 | 13.13
SEQ ID NO: 37: VKKX tag, amino acid sequence VKKTKTKKD (VKKX Tag) | 11.45 | 19.84
SEQ ID NO: 38: VKKX tag, amino acid sequence VKKTKTKTK (VKKX Tag) | 8.42 | 16.95
SEQ ID NO: 39: VKKX tag, amino acid sequence VKKTKTKTT (VKKX Tag) | 7.22 | 7.57
SEQ ID NO: 40: VKKX tag, amino acid sequence VKKTKTKDK (VKKX Tag) | 8.49 | 10.77
SEQ ID NO: 41: VKKX tag, amino acid sequence VKKTKTKDT (VKKX Tag) | 6.27 | 28.80
SEQ ID NO: 42: VKKX tag, amino acid sequence VKKTKTKDD (VKKX Tag) | 5.35 | 14.95
SEQ ID NO: 43: VKKX tag, amino acid sequence VKKTKTTKK (VKKX Tag) | 9.45 | 23.35
SEQ ID NO: 44: VKKX tag, amino acid sequence VKKTKTTKT (VKKX Tag) | 7.83 | 7.18
